The results in this text go back to US10806794B2, “Protease inhibitors having enhanced features” (priority 2008, dated 2020).

The pIC50 is the negative decadic logarithm of the IC50, by convention in mol/L. The t½ is the time in which the quantity being followed falls by half. Low readings indicate fast loss, high ones slow loss.

pIC50: −log10 of the molar value. A value given as a limit tells only on which side of the number the result lay.

For one data set, the target named is CYP2C9 (Homo sapiens (Human), UniProt P11712). The note with it: microsomes.
Chain of CYP2C9 (P11712 whole entry): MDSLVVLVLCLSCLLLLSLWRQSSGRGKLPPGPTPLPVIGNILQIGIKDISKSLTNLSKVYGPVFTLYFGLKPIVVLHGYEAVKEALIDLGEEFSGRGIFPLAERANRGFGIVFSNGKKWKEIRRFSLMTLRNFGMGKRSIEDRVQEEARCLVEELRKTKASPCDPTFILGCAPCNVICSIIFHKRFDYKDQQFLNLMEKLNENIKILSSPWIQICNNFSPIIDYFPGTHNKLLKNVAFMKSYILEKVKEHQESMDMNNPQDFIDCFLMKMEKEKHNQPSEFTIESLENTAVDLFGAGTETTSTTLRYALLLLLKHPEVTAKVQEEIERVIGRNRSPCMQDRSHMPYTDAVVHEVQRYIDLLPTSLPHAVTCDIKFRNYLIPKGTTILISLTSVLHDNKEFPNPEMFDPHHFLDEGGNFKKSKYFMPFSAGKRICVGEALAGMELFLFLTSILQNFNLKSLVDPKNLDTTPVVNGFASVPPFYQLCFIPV
Another data set concerns dog plasma proteins. Briefly: Plasma protein binding by equilibrium dialysis, dog plasma. It counts as in vitro ADME. The note with it: fraction unbound. The procedure:
(§1) In assays to estimate binding of test compounds to plasma proteins, test compound solutions (5 μM) are prepared in buffer and species-specific plasma (final DMSO concentration 0.5%). The plasma-containing solution is added to one side of the membrane of an equilibrium dialysis system, and the plasma-free is added to the other side. Dialysis was allowed to reach equilibrium by incubation for two hours at 37° C. The concentration of compound on both sides of the membrane was measured using LC-MS/MS.
For orientation: In equilibrium dialysis free small molecules cross a membrane that holds back macromolecules.

A short description of data set [1]: Metabolic stability in rat liver microsomes. In kind it is in vitro ADME. An excerpt: Metabolic stability of test compounds was studied in rat liver microsomes.
(In general: Liver microsomes are a subcellular fraction often used to study metabolism.)

The next data set addresses hERG (Homo sapiens (Human), UniProt Q12809). Briefly: hERG current (IKr) in HEK-293 cells, whole-cell patch clamp. In kind it is cell-based. The note with it: for Mean % inhibition ± SEM (Block of hERG at 0.1 Hz): HEK-293 cells; for pIC50: hERG current in HEK-293 cells, whole-cell patch clamp, 0.1 Hz, read-out: IC50 (Block of hERG at 0.1 Hz). How it is done:
Currents were measured using the whole-cell variant of the patch clamp method. Glass pipettes were produced with tip openings of […] for K current recordings. Pipette tip resistance was approximately 1.0 to 2.0 MΩ when filled with K internal solutions (130 mM KCl, 5 mM MgCl2, 10 mM HEPES, 5 mM EGTA, 5 mM ATP-Na2, pH7.2). An Axopatch 1-B amplifier (Axon Instruments, Foster City, Calif.) was used for whole-cell voltage clamping. Voltage clamp pulses were controlled by pClamp software (ver 9.2, Axon Instruments).
After rupture of the cell membrane, current kinetics and amplitudes were allowed to stabilize as the cell was dialyzed with internal solution and paced at 0.1 Hz (−75 mV; 500 msec, +10 mV; 500 msec, −40 mV; typically 2-4 minutes). Currents were considered stable if the currents elicited by a series of voltage pulses given at 0.1 Hz were superimposed. Peak hERG current was measured as the maximum outward deflection of the tail current elicited upon return to −40 mV.
Data are presented in Table 19 as the percent reduction of current amplitude. This was measured as current reduction after a steady-state effect had been reached in the presence of drug relative to current amplitude before drug was introduced (control). Each cell served as its own control.
In general terms: Block of hERG is tested as a sign of cardiac risk.

The next data set can be described thus: in vitro. It counts as in vitro ADME. To be noted: dog, microsomes. An excerpt: Metabolic stability of test compounds was studied in dog liver microsomes.
The subject of the next data set is rat plasma proteins. In words: Plasma protein binding by equilibrium dialysis, rat plasma. To be noted: fraction unbound. It counts as in vitro ADME. The procedure:
as §1

The subject of another data set is beagle dog hepatocytes. In words: Metabolic stability in beagle dog hepatocytes. It counts as in vitro ADME. The note with it: 0.1 uM.

Chain of hERG (Q12809 whole entry): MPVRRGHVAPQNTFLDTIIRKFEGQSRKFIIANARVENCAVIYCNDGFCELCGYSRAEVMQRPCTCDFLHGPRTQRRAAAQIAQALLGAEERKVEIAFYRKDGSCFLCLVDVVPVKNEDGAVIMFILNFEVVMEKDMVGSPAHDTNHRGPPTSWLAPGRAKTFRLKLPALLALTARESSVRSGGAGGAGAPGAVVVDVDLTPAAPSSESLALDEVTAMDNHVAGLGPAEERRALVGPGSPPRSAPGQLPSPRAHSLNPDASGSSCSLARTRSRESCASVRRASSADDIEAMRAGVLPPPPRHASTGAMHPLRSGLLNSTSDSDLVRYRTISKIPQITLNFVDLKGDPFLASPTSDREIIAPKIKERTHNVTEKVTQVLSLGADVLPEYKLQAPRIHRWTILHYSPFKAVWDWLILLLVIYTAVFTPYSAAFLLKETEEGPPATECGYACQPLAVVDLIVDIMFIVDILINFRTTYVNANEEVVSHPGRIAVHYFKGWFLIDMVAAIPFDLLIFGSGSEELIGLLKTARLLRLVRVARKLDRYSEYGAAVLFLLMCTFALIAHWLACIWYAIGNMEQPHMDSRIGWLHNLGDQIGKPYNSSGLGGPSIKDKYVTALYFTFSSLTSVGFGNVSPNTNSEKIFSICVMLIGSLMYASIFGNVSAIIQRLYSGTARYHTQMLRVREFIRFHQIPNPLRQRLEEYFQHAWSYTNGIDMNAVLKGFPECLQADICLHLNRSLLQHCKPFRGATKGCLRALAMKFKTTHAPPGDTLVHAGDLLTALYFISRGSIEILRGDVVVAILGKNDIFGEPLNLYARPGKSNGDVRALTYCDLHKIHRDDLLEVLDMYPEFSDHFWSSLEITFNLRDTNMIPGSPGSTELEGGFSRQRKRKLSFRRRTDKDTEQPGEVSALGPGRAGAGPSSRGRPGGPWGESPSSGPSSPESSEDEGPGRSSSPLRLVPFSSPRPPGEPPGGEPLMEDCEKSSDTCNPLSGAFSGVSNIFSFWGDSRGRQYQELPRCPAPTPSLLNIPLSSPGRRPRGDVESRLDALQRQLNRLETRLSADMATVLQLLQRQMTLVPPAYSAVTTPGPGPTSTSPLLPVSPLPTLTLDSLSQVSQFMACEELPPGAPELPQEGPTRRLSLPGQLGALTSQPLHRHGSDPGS

Consider `COCCOCCOCCOCCOCCOC(=O)NC(C(=O)NC(Cc1ccccc1)C(O)CN(Cc1ccc(-c2ccccn2)cc1)NC(=O)C(NC(=O)OC)C(C)(C)C)C(C)(C)C` (stereo not shown) [mono-mPEG5-Atazanavir], for which the pIC50 at CYP2C9 was 4.63; on hERG it was less than 4.00. Moreover, in the data set on dog plasma proteins, the “Dog Plasma Protein Binding Fu ± SD” value turned out to be 0.695 ± 0.118. Further, the t½ in data set [1] worked out at 57.6 min. In addition, the “Mean % inhibition ± SEM (Block of hERG at 0.1 Hz)” value stood at 11.2 ± 1.4% on hERG (10 μM), 26.3 ± 2.9% on hERG (30 μM) and 43.8 ± 3.9% on hERG (100 μM). This compound returned a Clint in “in vitro” of 93.0 μL/min/mg protein. Moreover, the t1/2 in the data set “in vitro” was 14.9 min. In addition, in the data set with rat plasma proteins, the “Rat Plasma Protein Binding Fu ± SD” value was determined as 0.307 ± 0.0493.
In the case of `COCCOCCOCCOCCOCCOCCOC(=O)NC(C(=O)NC(Cc1ccccc1)C(O)CN(Cc1ccc(-c2ccccn2)cc1)NC(=O)C(NC(=O)OC)C(C)(C)C)C(C)(C)C` (stereo not shown) [mono-mPEG6-Atazanavir], the pIC50 is less than 4.60 against CYP2C9 and less than 4.00 at hERG. Also, the “Dog Plasma Protein Binding Fu ± SD” value with dog plasma proteins stood at 0.497 ± 0.0386. In addition, the t½ in data set [1] turned out to be 104 min. The “Mean % inhibition ± SEM (Block of hERG at 0.1 Hz)” value at hERG (10 μM) came out at 4.4 ± 0.4%; on hERG (30 μM), 12.7 ± 1.3%; on hERG (100 μM), 26.0 ± 1.0%. The compound further displayed a Clint in the data set “in vitro” of 67.1 μL/min/mg protein. Besides, the t1/2 in “in vitro” is 20.7 min; in the data set on beagle dog hepatocytes it was 110.6 h. Also, in the data set on beagle dog hepatocytes, the “CLint ± SEM” value was 0.209 ± 0.000143 μL/min/10^6 cells. Further, the “Rat Plasma Protein Binding Fu ± SD” value with rat plasma proteins worked out at 0.451 ± 0.0385.
